According to patent publication US5157019A, “Serine protease inhibitors” (Monsanto Company, priority 1991, dated 1992):
Like-named read-outs stand apart in the source and are kept apart here. Ends that are not written are not given here.

Assays:
Format in all cases: biochemical
HUMAN SPUTUM ELASTASE = target: T1, HUMAN SPUTUM ELASTASE (Homo sapiens, UniProt P08246); experiment: Elastase assay (MeO-Suc-Ala-Pro-Val-pNA); details: 200 μM peptide
T1 construct: HUMAN SPUTUM ELASTASE; purchased Elastin Products Company SE563; host or cells: human sputum (from the product name)
T1 sequence (P08246 30-267): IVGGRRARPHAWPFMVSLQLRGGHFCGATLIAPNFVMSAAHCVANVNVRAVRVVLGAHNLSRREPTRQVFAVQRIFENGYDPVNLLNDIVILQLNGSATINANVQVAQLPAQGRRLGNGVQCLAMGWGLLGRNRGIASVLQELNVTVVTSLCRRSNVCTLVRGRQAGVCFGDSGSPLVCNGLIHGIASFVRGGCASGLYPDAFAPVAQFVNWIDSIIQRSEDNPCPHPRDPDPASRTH
Procedure: Enzyme used is "HUMAN SPUTUM ELASTASE®" which is an enzyme which is the target protease for α1 antitrypsin from Elastin Products Company, Catalog No. SE563, lot 85071, 875 units/mg as determined by supplier with N-Suc-Ala-Ala-Ala-pNA; prepared at 0.2 mg/mL in 0.1M Tris·HCl, pH 8.8 at 37 degrees C. An amount of enzyme is used to give approximately 0.1 change in Absorbance/min; which in this assay was 1 μg.
The substrate is MeO-Suc-Ala-Pro-Val-pNA, Sigma Catalog No. M-4765. About 50 mg of the substrate is dissolved in 1 ml of 1-methyl-2-pyrrolidinone and diluted to 33 mls. with 0.1M Tris-HCl, pH 7.5, containing 0.5M NaCl, and 0.01 wt % sodium azide.
Peptide solutions are prepared at 500 μM, using 1.5% of the final volume of DMSO first and diluting with distilled water (DW) or 0.1M Tris.HCl, pH 8.8 at 37 degrees C. [formula]

C1s = target: T2, C1s (Homo sapiens, UniProt P09871); experiment: C1s assay by inhibition of fluid phase C4 activation
T2 construct: prepared from pooled human plasma; from tissue; host or cells: pooled human plasma
T2 sequence (P09871 16-688): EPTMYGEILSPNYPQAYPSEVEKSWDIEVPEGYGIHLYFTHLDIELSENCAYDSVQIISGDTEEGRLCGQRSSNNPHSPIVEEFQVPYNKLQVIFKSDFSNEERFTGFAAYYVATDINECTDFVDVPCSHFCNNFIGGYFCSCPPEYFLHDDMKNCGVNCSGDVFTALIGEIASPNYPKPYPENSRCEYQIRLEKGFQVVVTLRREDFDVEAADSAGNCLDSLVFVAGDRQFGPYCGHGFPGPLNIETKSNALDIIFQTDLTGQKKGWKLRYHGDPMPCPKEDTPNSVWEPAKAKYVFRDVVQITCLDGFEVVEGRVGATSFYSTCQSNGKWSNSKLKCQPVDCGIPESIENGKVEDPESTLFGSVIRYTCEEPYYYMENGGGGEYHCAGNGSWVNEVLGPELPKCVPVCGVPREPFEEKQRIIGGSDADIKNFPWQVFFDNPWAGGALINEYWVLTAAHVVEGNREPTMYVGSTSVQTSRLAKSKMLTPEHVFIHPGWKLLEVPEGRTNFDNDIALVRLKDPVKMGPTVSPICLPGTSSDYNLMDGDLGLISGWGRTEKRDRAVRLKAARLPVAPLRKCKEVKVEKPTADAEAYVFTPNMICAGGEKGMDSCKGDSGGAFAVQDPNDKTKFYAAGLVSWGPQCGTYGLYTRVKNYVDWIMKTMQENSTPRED
Procedure: (§1) Highly purified C3, C4, Factor D, Factor B, and C1s were prepared from pooled human plasma. Factors B and C4 were radiolabeled by periodate oxidation of sialic acid residues, followed by reduction with tritiated sodium borohydride. In a representative experiment, a solution of 1.2 mg of factor B in 1.8 ml of PBS was treated with 70 μl of 0.1M NaIO4. After 10 min incubation on ice, excess reagent was removed by filtration over "SEPHADEX®" which is a matrix for gel chromatography (1.0 cm×20 cm). To the protein pool was added 60 μl of NaB[^3 H]4 solution and incubated for 30 min on ice. Labeled protein was separated from excess reagent by desalting or dialysis. Human C4 was radiolabeled in the same manner. Radiolabeled proteins were stored at -70° C. in PBS. The specific radioactivity of ^3 H factor B was about 10,000 CPM/μg and that of ^3 H-C4 was 5,000 CPM/μg.
The cleavage of C4 was studied by incubating 10 μg of tritiated C4 with 3-5 ng of C1s at 37° C. for 30 min in 100 μl of PBS (pH 7.10) containing different concentrations of inhibitor. The reaction was stopped by the addition of 2-mercaptoethanol. The extent of cleavage was analyzed by SDS-polyacrylamide gel electrophoresis. The stained bands corresponding to C4α and C4α' were cut out and sliced. The radioactivity of the fragments was measured by liquid scintillation counting. The percent cleavage of the reaction was calculated as follows: [formula]
(§2) Electrophoresis was carried out under reducing conditions in the Laemmli system using slab gel of 8% polyacrylamide. The gels were stained and destained (Fairbanks et al. Biochemistry (1971) 10:2606).
(§3) The percent inhibition of the reaction was calculated according to the following relationship: [formula]
(§4) A: % cleavage without inhibitor
(§5) B: % cleavage with inhibitor
(§6) The concentration inducing 50% inhibition was obtained by plotting the percent inhibition on a probability graph (National Blank Book Co., No. 12-083) on the ordinate and the log of the inhibitor concentration on the abscissa. From this graph, a 50% inhibition concentration IC50 was obtained and this value was employed to express the activity.

Factor D = target: T3, Factor D (Homo sapiens, UniProt P00746); experiment: Factor D assay by inhibition of fluid phase Factor B activation
T3 construct: prepared from pooled human plasma; from tissue; host or cells: pooled human plasma
Procedure: as §1
The effect of the peptides on Factor D-dependent cleavage of factor B was studied by incubating 3.5 μg of Factor B, 1.5 μg of C3(H2 O) and 0.2 μl of Factor D at 37° C. for 60 min in Mg-PBS containing different concentrations of inhibitor. Uncleaved Factor B and its fragments, Ba and Bb, were first separated by SDS-PAGE and analyzed as described above. The percent cleavage of the reaction was calculated as follows: [formula]
B=radioactivity (CPM) of uncleaved factor B
Bb=radioactivity (CPM) of fragment Bb
Ba=radioactivity (CPM) of fragment Ba
as §2, §3, §4, §5, §6

[1] = Table X, μM concentration at which protease was inhibited 50%, read-out: IC50 D
[2] = Tables VI and VIII, % 50, read-out: C1s, μM concentration listed for 50 % inhibition
[3] = Tables VI and VIII, % 50, read-out: Factor D, μM concentration listed for 50 % inhibition

T3 sequence (P00746 26-253): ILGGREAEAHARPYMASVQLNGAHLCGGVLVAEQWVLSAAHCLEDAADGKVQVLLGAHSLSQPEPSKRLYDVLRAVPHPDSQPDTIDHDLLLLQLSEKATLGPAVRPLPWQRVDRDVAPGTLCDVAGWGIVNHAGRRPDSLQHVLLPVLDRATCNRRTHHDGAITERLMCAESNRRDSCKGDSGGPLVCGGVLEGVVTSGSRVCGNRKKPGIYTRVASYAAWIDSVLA

Row | Molecule | Elastase Inhibition (HUMAN SPUTUM ELASTASE) | inhibition at 200 µM (HUMAN SPUTUM ELASTASE) | inhibition at 200 µM (C1s; 200 μM peptide) | inhibition at 200 µM (Factor D; 200 μM peptide) | IC50 (C1s; Table X, μM concentration at which protease was inhibited 50%, read-out: IC50 C1S) | IC50 (Factor D; [1]) | IC50 (C1s; [2]) | IC50 (Factor D; [3])
1 | CC[C@H](C)[C@H](NC(=O)[C@H](CC(C)C)NC(=O)[C@H](Cc1ccccc1)NC(=O)[C@@H](NC(=O)[C@H](Cc1ccccc1)NC(=O)[C@@H]1CCCN1C(=O)[C@H](CCCCN)NC(=O)[C@H](CC(N)=O)NC(=O)[C@H](Cc1ccccc1)NC(=O)[C@H](CCCCN)NC(=O)[C@@H](NC(=O)[C@H](CCC(=O)O)NC(=O)[C@@H]1CCCN1C(=O)[C@@H]1CCCN1)C(C)C)C(C)C)C(=O)O [Peptide 1] | no inhibitory activity | 0% | 0% | 0% | – | – | – | –
2 | AGRSLNPNRVTFKANRPFLVFIREVPLNTIIFLGRVANP [Peptide 27] | – | 0% | – | – | 12 µM | < 25 µM | – | –
3 | IVRFNRPFLLII [Peptide 3] | – | 0% | – | – | – | – | 55 µM | 111 µM
4 | PNRVTFKANRPFLVFI [Peptide 2] | – | 0% | – | – | – | – | 34 µM | 53 µM

Continued, values first:

Row | Elastase Inhibition (HUMAN SPUTUM ELASTASE) | inhibition at 200 µM (HUMAN SPUTUM ELASTASE) | inhibition at 200 µM (C1s; 200 μM peptide) | inhibition at 200 µM (Factor D; 200 μM peptide) | IC50 (C1s; Table X, μM concentration at which protease was inhibited 50%, read-out: IC50 C1S) | IC50 (Factor D; [1]) | IC50 (C1s; [2]) | IC50 (Factor D; [3]) | Molecule
5 | 0% | – | – | – | – | – | 6 µM | 4 µM | IVRFNRPFLLIIVPTDTQNIFFLSKVTNPSKPR [Peptide 22]
6 | – | 0% | – | – | – | < 8 µM | 6 µM | < 8 µM | RVTFKANRPFLVFIREVPLNTIIFLGRVANP [Peptide 21]
7 | 0% | – | – | – | – | – | 12 µM | 16 µM | VKFNKPFVFLLIEQNTKSPLFLGKVVNPTQK [Peptide 20]
